The test system of this assay is panel of 50 SH2 domains. Briefly: SPOT peptide array probed with each of 50 GST-SH2 domains. To be noted: SPOT192 peptide array; for SH2 Domains >3X: list of GST-SH2 domains with spot intensity >3X array mean (array-positive); for 2X < SH2 Domains < 3X: list of GST-SH2 domains with spot intensity between 2X and 3X array mean (indeterminate range). The assay is classed as binding. The source says:
The use of addressable peptide arrays is a reproducible and semi-quantitative approach that has been extensively validated for studying protein interactions with peptide ligands. To investigate connections between SH2 domain proteins and their putative phosphorylated docking sites on cell surface receptors, we developed addressable arrays consisting of 192 phosphotyrosine peptides. This peptide set was assembled using 71 phosphotyrosine peptide motifs corresponding to all of the cytoplasmic tyrosine residues within the FGF receptors (FGFR1-4), insulin receptor (InsR) and IGF-1 receptor (IGF-1R) (Figure 1A). Activation of these receptors results in the phosphorylation of associated scaffold proteins, and so 75 phosphotyrosine peptides corresponding to a comprehensive list of tyrosine residues within insulin receptor substrates (IRS-1 and IRS-2) and fibroblast receptor substrates (FRS-2 and FRS-3) were included. In addition, 33 phosphotyrosine peptides were incorporated from the downstream signaling proteins PLC-γ1, p130Cas (BCAR1) and p62DOK1. […] These control peptides provide a reference and establish the empirical cut-off for designated binding interactions (Table 1). No discrimination was made against peptides on the basis of reported phosphorylation state in order to examine a diverse and unbiased set of motifs. The resulting set of 192 phosphotyrosine peptides and their corresponding position in the proteins of origin is noted in Additional file 1: Table S1. Addressable arrays were synthesized as membrane-bound 11-mer peptides using the SPOT synthesis technique. While the majority of SH2 domains recognize residues C-terminal to the phosphotyrosine in their cognate peptide ligands, additional contacts between SH2 domains and residues N-terminal to the phosphotyrosine are observed for the SH2 domain of Sh2d1a (SAP) and cannot be ruled out in other cases. Peptides were synthesized with six flanking residues C-terminal to the phosphotyrosine and four residues N-terminal to the phosphotyrosine.
To assess the potential network of SH2 domain interactions we selected 50 SH2 domains representing 28 of the 38 families of SH2 domains (Figure 1B) all of which we have previously shown can be expressed and purified. These include a number of extensively studied SH2 domains (Src, Grb2, PLCγ), as well as a number of less studied SH2 domains from proteins such as Shd, She, Shf, Slnk (Sh2d6), Sh2d1a (SAP), Sh2d1b (Eat-2), and Brdg1. To address potential variability in specificity within families we employed all members from the SHB, CRK, GRB2, SRC and ABL families (families are indicated with complete Capitalized lettering).
SH2 domains were arrayed as GST fusion proteins and detected using anti-GST primary antibodies and near-infrared labeled secondary antibodies. In an effort to present a dataset with minimal false positives, we chose an empirical cutoff based on the array average across all peptide spots to classify interactions (Figure 1A). In cases where the intensity of the signal for an individual SH2-domain binding event exceeded the mean intensity of all the peptides on the membrane by three-fold were scored as “array positives” [22]. Non-binding was judged in cases where the intensity of a spot was less than the mean intensity of all spots on the membrane and these were scored as “array negatives”. Peptides with signal intensities between 1X and 3X mean were scored as “indeterminate” and ascribed as neither array positive binding interactions nor array-negative non-binders. […] This signature may be indicative of promiscuity differences between phosphopeptides or there may be a subset of peptides which interact in a nonspecific fashion with either the GST fusion tag or one of the antibodies used for detection, resulting in false positives. […]

Take QQGLpYQVPGPS [H07]: the “SH2 Domains >3X” value is reported as “CRK, CRKL”.
Turning to QSHTpYVNTPAS [G12], the “SH2 Domains >3X” value is given as “GADS, GRAP, GRB2, GRB7, VAV1” and the “2X < SH2 Domains < 3X” value is on record as “ABL1, SH2D2A”.
As for QVHTpYVNTTGV [G02], the “SH2 Domains >3X” value is reported as “GADS, GRAP, GRB2, GRB7, PI3K1_N, PI3K1_C” and the “2X < SH2 Domains < 3X” value is “ABL1, ZAP70_N”.
Regarding RGMEYpLASKKA [E12], the “SH2 Domains >3X” value is given as “BCAR3, BRDG1, TENC1, ZAP70_N” and the “2X < SH2 Domains < 3X” value was “BMX, FER, MIST, PLCG2_N, SHB, SHF”.
With RGMEpYLASQKC [E24], the “SH2 Domains >3X” value is “BRDG1, SHF” and the “2X < SH2 Domains < 3X” value is given as “BCAR3, PLCG2_N, PLCG2_C, SHB, SHD, ZAP70_N”.
Take RGMQpYLESRKA [F15]: the “SH2 Domains >3X” value is “BCAR3, BRDG1, TENC1” and the “2X < SH2 Domains < 3X” value is given as “BMX, ITK, MIST, PLCG2_N, PLCG2_C, SHF”.
RKRTpYSLTTPA [D13]: the “SH2 Domains >3X” value is “BCAR3, BRDG1, ITK, PLCG2_N, TENC1” and the “2X < SH2 Domains < 3X” value is “BMX, BRK, MIST, SHB, SHF”.
For the substance RKVGpYLRKPKS [B18], the “SH2 Domains >3X” value was “BCAR3, BMX, BRDG1, BRK, FER, PI3K1_N, RIN1, TENC1” and the “2X < SH2 Domains < 3X” value was “MATK, MIST, PLCG2_N, PTPN11_C, SHB, SHF, SHD”.
For RLEYpYENEKKW [B20], the “SH2 Domains >3X” value is reported as “ABL1, ABL2, BMX, BRK, FER, FGR, HCK, GADS, GRAP, GRB2, GRB7, MATK, MIST, PI3K1_N, PI3K1_C, RIN1, SH2D1B, SH2D2A, SH3BP2, SHF, TENC1, VAV1” and the “2X < SH2 Domains < 3X” value is “BCAR3, BRDG1, CRK, ITK, PLCG2_N, PTPN11_N, PTPN11_C, Sh2b, SHC1, SHD, SRC”.
On to RLEYpYESEKKW [D01], for which the “SH2 Domains >3X” value was “SH3BP2” and the “2X < SH2 Domains < 3X” value is “BRDG1, FER, MIST, PTPN11_C, Sh2b, SH2D1B”.
As for RQLNpYIQVDLE [G09], the “SH2 Domains >3X” value is recorded as “BCAR3, BMX, BRDG1, DAPP1, ITK, MIST, PLCG2_C, PTPN11_N, RASA1_N, SHB, SHF, SHD, SHE, SYK_C, VAV1, ZAP70_N” and the “2X < SH2 Domains < 3X” value is recorded as “PTPN11_C, Sh2b”.
For the substance RQLNpYIQVELK [G14], the “SH2 Domains >3X” value is reported as “BCAR3, MIST, PTPN11_N, SHE” and the “2X < SH2 Domains < 3X” value is on record as “BRDG1, SHD, TENC1”.
Take RRYGpYDSNLFS [F23]: the “SH2 Domains >3X” value is recorded as “ABL1, BCAR3, BMX, BRDG1, CRK, CRKL, FER, MATK, SHB, SHD, TENC1” and the “2X < SH2 Domains < 3X” value is recorded as “PLCG2_N, PTPN11_C, SH2D2A, SHF”.
As to RSDDpYMPMSPA [D19], the “2X < SH2 Domains < 3X” value was “PI3K1_C”.
For the substance RTELpYAVIDIE [G10], the “SH2 Domains >3X” value is reported as “ABL2, BMX, ITK, MIST, PLCG2_C, RASA1_N, Sh2b, SH2D1B, SHB, SHF, SHE, SYK_C” and the “2X < SH2 Domains < 3X” value is on record as “ABL1, BRK, RASA1_C, SHD, YES”.
As to SDAYpYGPEDPH [C11], the “2X < SH2 Domains < 3X” value was “BLK, BMX, DAPP1, FYN, GRB7, LCK, LYN, PLCG2_C, RASA1_C, SH2D1B, SHC1”.
SDDDpYDDVDIP [A12]: the “SH2 Domains >3X” value is listed as “BRK, NCK1, SLNK”.
SGTSpYGKLWTN [C08]: the “SH2 Domains >3X” value is on record as “BCAR3, BMX, BRDG1, CRK, FER, MIST, PTPN11_C, SH2D1B, SHC1, SHF, SYK_C, TENC1” and the “2X < SH2 Domains < 3X” value is reported as “CRKL, DAPP1, GADS, ITK, MATK, PLCG2_C, PTPN11_N, RIN1, Sh2b, SH3BP2, SHB, SHD, SHE, YES”.
Regarding SIEEpYTEMMPA [C03], the “SH2 Domains >3X” value was “BRK, SHC1” and the “2X < SH2 Domains < 3X” value is listed as “BLK, FER, FGR, LCK, PI3K1_C”.
For SLDEpYGSSPGD [D09], the “SH2 Domains >3X” value is “SLNK” and the “2X < SH2 Domains < 3X” value is “BLK, LCK”.
SLDEpYTLMRAT [D14]: the “2X < SH2 Domains < 3X” value is recorded as “PI3K1_C”.
On to SLPQpYPHINGS [F06], for which the “SH2 Domains >3X” value is reported as “ZAP70_N”.
With SLTIpYAQVQKA [A08], the “SH2 Domains >3X” value is given as “BCAR3, BMX, BRDG1, FER, MATK, SH2D1B, TENC1” and the “2X < SH2 Domains < 3X” value is given as “MIST, PI3K1_N, PTPN11_N, PTPN11_C, RIN1, Sh2b, SHC1, SHD, SYK_C”.
With SNPEpYLSASDV [A19], the “SH2 Domains >3X” value is reported as “VAV1”.
Turning to SPGEpYVNIEFG [C16], the “SH2 Domains >3X” value is “BLK, BMX, DAPP1, FGR, GADS, GRAP, GRB2, GRB7, ITK, MIST, PI3K1_N, PI3K1_C, PLCG2_C, PTPN11_N, PTPN11_C, RASA1_N, RASA1_C, Sh2b, SH2D2A, SHB, SHF, SHD, SHE, SYK_C, VAV1, YES” and the “2X < SH2 Domains < 3X” value is on record as “ABL1, ABL2, BRK, FYN, HCK, LCK, LYN, SH2D1B, SRC, TENC1”.
In the case of SQVNpYRVPNMR [G16], the “SH2 Domains >3X” value is listed as “BCAR3, BRDG1, MIST, PLCG2_N, SHF, TENC1” and the “2X < SH2 Domains < 3X” value is “BMX, CRKL, PLCG2_C”.
As to SRGDpYMTMQMS [C19], the “SH2 Domains >3X” value is given as “PI3K1_C”.
